Assay results from US6433022B1, “Spermicide” (Medical Research Council, priority 1997, dated 2002).

How the values were obtained:
human sperm = experiment: Effect of quinones on sperm motility; assay type: cell-based
Procedure: Following the preparation of spermatozoa by standard Percoll gradient they were resuspended in homologous seminal plasma to a concentration of 20 million per ml, immediately prior to the beginning of the experiment. 50 μl of the sperm suspension was placed in an eppendorf tube, and the quinone was either added alone or in combination with other reagents, for example, KI, HRP (Horseradish Peroxidase), BHT (butylated hydroxytoluene) etc. depending on the experiment. The volume was made up to 100 μl with BWW/PVA.
The quinone was always the final reagent to be added. […] The sample was gently agitated and 10 μl was placed on a slide and a motility was scored. The aim was to score a motility approximately 20 seconds following the addition of the quinone. There were two controls set up, one motility count taken at the beginning of the experiment (initial control) and one motility count taken at the end of the experiment (final control). The controls consisted of 50 μl of the sperm suspension followed by the addition of 50 μl BWW/PVA. The reason for having two controls was to observe if any changes in sperm motility had occurred simply as a factor of time, i.e. from residing in seminal plasma for a long duration. At all times during the experiment, the spermatozoa were incubated in a hot box at 24° C. All motility experiments were carried out on sperm suspended in seminal plasma unless otherwise stated.

[1] = test system: spermatozoa in seminal plasma; experiment: Lucigenin-dependent chemiluminescence detection of quinone-induced superoxide; assay type: cell-based, human; conditions: increasing doses incl. 25 μM and 50 μM; FIG. 1b
From the text: ROS generation was monitored by luminometry employing the chemiluminescence probes lucigenin and luminol. Lucigenin is sensitive to the presence of superoxide anion and was used to monitor the free radical responses to NAD(P)H. Luminol, when used in conjunction with horseradish peroxidase (HRP; Sigma Type Vl, 288 U/mg), detects mainly hydrogen peroxide (Aitken et al., 1992) and was used to monitor the responses of spermatozoa to PMA (phorbol 12-myristate, 13-acetate), an activator of protein kinase C. NAD(P)H could not be used with the luminol-peroxidase system because of the generation of high background signals, presumably due to the oxidase reactions of HRP. Photon emission was monitored at 37° C. using the Bermold 9505B luminometer (Berthold, Wilbad, Germany) featuring 6 electronically compensated, peltier cooled, photomultipliers and the results expressed as counts/minute. For both of the probes used, 400 μl of spermatozoa, at a concentration of 10×10^6/ml, were placed in a 3 ml plastic, flat-bottomed plastic tube. For luminol-based reactions, the spermatozoa were suspended in BWW supplemented with Albuminar, but when lucigenin was used the Albuminar was replaced with 1 mg/ml polyvinyl alcohol. […] The luminometer results were recorded as continuous traces and as integrated photon counts over a fixed period of time (5 min). […]

[2] = test system: sperm, seminal plasma and serum; experiment: Luminol/peroxidase-dependent chemiluminescence detection of quinone-induced H2O2; assay type: cell-based, human; conditions: 50 μM
From the text: (§1) ROS generation was monitored by luminometry employing the chemiluminescence probes lucigenin and luminol. Lucigenin is sensitive to the presence of superoxide anion and was used to monitor the free radical responses to NAD(P)H. Luminol, when used in conjunction with horseradish peroxidase (HRP; Sigma Type Vl, 288 U/mg), detects mainly hydrogen peroxide (Aitken et al., 1992) and was used to monitor the responses of spermatozoa to PMA (phorbol 12-myristate, 13-acetate), an activator of protein kinase C. NAD(P)H could not be used with the luminol-peroxidase system because of the generation of high background signals, presumably due to the oxidase reactions of HRP. Photon emission was monitored at 37° C. using the Bermold 9505B luminometer (Berthold, Wilbad, Germany) featuring 6 electronically compensated, peltier cooled, photomultipliers and the results expressed as counts/minute. For both of the probes used, 400 μl of spermatozoa, at a concentration of 10×10^6/ml, were placed in a 3 ml plastic, flat-bottomed plastic tube. For luminol-based reactions, the spermatozoa were suspended in BWW supplemented with Albuminar, but when lucigenin was used the Albuminar was replaced with 1 mg/ml polyvinyl alcohol. A 4 μl aliquot of a 25 mM stock solution of either luminol or lucigenin m-dimethyl sulphoxide (DMSO), was then added to the cell suspension, resulting in a final probe concentration of 250 μM. For the measurement of hydrogen peroxide generation by intact cells, luminol-dependent chemiluminescence was enhanced by addition of 8 μl of HRP, freshly prepared at a concentration of 2 mg/ml in PBS, to give a final HRP concentration of 11.52 U/ml. The luminometer results were recorded as continuous traces and as integrated photon counts over a fixed period of time (5 min).
Luminol alone measures H2O2; however when used alongside HRP, it can measure the production of H2O2 internally and externally. The sperm were prepared by standard percoll gradient and resuspended in seminal plasma or BWW/PVA to a concentration of 10 million cells per ml. […]

spermatozoa = experiment: Effect on lipid peroxidation in spermatozoa; assay type: cell-based, human; conditions: exposure to compound vs control
HIV-1 = experiment: Virucidal activity using cell-free virus (viral adhesion assay, syncytia in C8166 cells); assay type: cell-based
Procedure: A simple, microtitre plate assay was developed (viral adhesion assay) in which the virus was attached to the solid phase by Pol-L-lysine Hydrobromide (PLL, Sigma). Sterile 24 and 96 well plates (Nunc) were coated for 1 hour with 50 μl of 50 μg/ml PLL at room temperature. When using 96 well microtitre plates the outer ring of wells were left uncoated and filled with 250 μl of sterile PBS to counteract the effects of evaporation. The coated wells were washed twice with sterile PBS using a Denley-4 plate washer. 25 μl of RPMI 1640 medium containing HIV-1 (50×TCID50) was added to the wells and incubated for 1 hour at room temperature. The plate was again washed twice with sterile PBS. 25 μl of varying concentrations of the candidate virucide were added to each well for 15 minutes and the virucide removed with two washes of sterile PBS. The T-lymphocyte cell line C8166, at a concentration of 4×10^4 cells in 300Fl RPMI 1640, were added to each well so that the cells formed a uniform monolayer on the adherent virus. After incubation for 72 hours, the number of syncytia in the monolayer gave an accurate measure of the amount of infectious virus present. Wells untreated with virucide were used as positive controls. […] The assay allowed the efficient removal of the candidate virucides or disinfectant and allowed the compound to be assessed for accurately determined contact times.

human spermatozoa [3] = experiment: Nicotinamide dinucleotide-induced superoxide generation, lucigenin-dependent chemiluminescence; assay type: cell-based
From the text: as §1
The ability of human spermatozoa to generate superoxide anion in response to NADPH was monitored by lucigenin-dependent chemiluminescence and compared with its non-phosphorylated and non-reduced counterparts, i.e. NADH, NADP^+ and NAD^+. In addition, the stimulatory properties of an isomer of NADPH, usually non-active in reductive biosynthesis, were examined. All pyridine nucleotides were made up to the required concentration in PBS immediately prior to use. Stock solutions of the nucleotides were made up at concentrations 10 fold higher than the required final working concentration, to allow for a 10 fold dilution on addition to the suspensions of spermatozoa.

human spermatozoa [4] = experiment: Quantification of superoxide anion generation by SOD-inhibitable reduction of cytochrome C; assay type: cell-based; conditions: 2 mM, n=5
Procedure: Superoxide anion generation was quantified spectrophotometrically via the superoxide-dependent reduction of cytochrome C (McCord and Fridovich, 1969). Spermatozoa were used at an increased concentration of 10×10^7/ml in BWW supplemented with PVA (1 mg/ml). An aliquot (400 μl) of this sperm suspension was placed in a 1 ml disposable, plastic cuvette and 50 μl of cytochrome C (Type Vl from horse heart), was added to give a final working concentration of 100 μM. The reference cuvette contained the same ingredients, except that 50 μl of SOD was added to give final concentration of 196 U/ml. Absorbance was monitored at 550 nm and the SOD-inhibitable superoxide generation calculated using an extinction coefficient for reduced cytochrome C of ε=21.1 mM^−1cm^−1.

human spermatozoa [5] = experiment: Percentage motility of spermatozoa exposed to NADPH; assay type: cell-based; conditions: doses 0.625 to 10 mM, at least 3 hr

Row | Compound | mean motility score (human sperm; 50 μM quinone, human sperm) | sperm immobilisation (human sperm; concentrations ranging from 25 μM to 100 μM) | IC50 (human sperm; human sperm in seminal plasma, motility scored approximately 20 seconds after addition, read-out: ID50, dose-dependent inhibition of sperm motility) | superoxide burst generated by spermatozoa in seminal plasma [1] | H2O2 production in seminal plasma and serum ([2]; no spermatozoa) | H2O2 production, spermatozoa in BWW ([2]; on addition of the reagent) | time of peak of slow secondary increase in H2O2 after initial exposure ([2]; spermatozoa in BWW) | lipid peroxidation in spermatozoa (spermatozoa) | antiviral activity against HIV-1 (HIV-1; absence of human semen, 15 minutes contact) | antiviral activity against HIV-1, effect of semen (HIV-1; presence of human semen vs absence) | lucigenin-dependent chemiluminescent response (superoxide anion generation) (human spermatozoa [3]; 500 μM nucleotide) | increase in the chemiluminescent signal (human spermatozoa [3]; addition to spermatozoa, lucigenin, FIG. 5a) | superoxide generation rate during sudden burst (human spermatozoa [4]) | superoxide release rate after stabilisation (human spermatozoa [4]; thereafter) | percentage motility of the spermatozoa (human spermatozoa [5])
1 | O=C1C=CC(=O)c2ccccc21 [1,4-naphthoquinone] | 0.143% | completely immobilised | ~10 µM | Increasing doses of this compound led to a corresponding increase in superoxide production | no such activity | instantaneous significant burst of H2O2 | 25 to 30 min | lipid peroxidation did not occur | dose-dependent antiviral activity | potentiated by an order of magnitude | – | – | – | – | –
2 | NC(=O)C1=CN([C@@H]2O[C@H](COP(=O)(O)OP(=O)(O)OC[C@H]3O[C@@H](n4cnc5c(N)ncnc54)[C@H](OP(=O)(O)O)[C@@H]3O)[C@@H](O)[C@H]2O)C=CC1 [NADPH, Dihydronicotinamide adenine dinucleotide phosphate] | – | – | – | – | – | – | – | – | – | – | burst of ROS generation | 10 fold | 99.52+/−9.12 pmol.min^−1. 10^6 spermatozoa | 7.65+/−0.97 pmol.min^−1. 10^6 spermatozoa | remained unchanged
